Target: T1, human β-Secretase (Homo sapiens, UniProt P56817)
T1 construct: The soluble part of the human β-Secretase (AA 1-AA 460) was cloned; Fc domain of IgG1 (C); made in house
Experiment: TR-FRET assay (β-secretase enzyme cleavage of (Europium)CEVNLDAEFK(Qsy7) substrate)
Type: biochemical
Conditions: sBACE-Fc 2.7 μg/ml, substrate 100 nM, pH 4.5, 15 min at RT
Description: The enzyme used in the IGEN Cleavage-, Fluorescent-, TR-FRET- and BiaCore assays is described as follows:
The soluble part of the human β-Secretase (AA 1-AA 460) was cloned into the ASP2-Fc10-1-IRES-GFP-neoK mammalian expression vector. The gene was fused to the Fc domain of IgG1 (affinity tag) and stably cloned into HEK 293 cells. Purified sBACE-Fc is stored in Tris buffer, pH 9.2 and has a purity of 95%.
Enzyme was diluted to 6 μg/mL and the substrate (Europium)CEVNLDAEFK(Qsy7) to 200 nM in reaction buffer (NaAcetate, chaps, triton x-100, EDTA pH 4.5). Compounds were diluted to the desired concentration in dimethyl sulfoxide (final dimethyl sulfoxide concentration in assay is 5%). The assay was done in a Costar 384 well round bottom, low volume, non-binding surface plate (Corning #3676). Enzyme (9 μL) and 1 μL of compound in dimethyl sulfoxide was added to the plate, mixed and pre-incubated for 10 min. Substrate (10 μL) was added and the reaction proceeded in the dark for 15 min at RT. The reaction was stopped with the addition of 7 μl, NaAcetate, pH 9. The fluorescence of the product was measured on a Victor II plate reader with an excitation wavelength of 340 nm and an emission wavelength of 615 nm. The final concentration of the enzyme was 2.7 μg/ml and the final concentration of the substrate was 100 nM (Km of 290 nM). […]

T1 sequence (P56817 22-460): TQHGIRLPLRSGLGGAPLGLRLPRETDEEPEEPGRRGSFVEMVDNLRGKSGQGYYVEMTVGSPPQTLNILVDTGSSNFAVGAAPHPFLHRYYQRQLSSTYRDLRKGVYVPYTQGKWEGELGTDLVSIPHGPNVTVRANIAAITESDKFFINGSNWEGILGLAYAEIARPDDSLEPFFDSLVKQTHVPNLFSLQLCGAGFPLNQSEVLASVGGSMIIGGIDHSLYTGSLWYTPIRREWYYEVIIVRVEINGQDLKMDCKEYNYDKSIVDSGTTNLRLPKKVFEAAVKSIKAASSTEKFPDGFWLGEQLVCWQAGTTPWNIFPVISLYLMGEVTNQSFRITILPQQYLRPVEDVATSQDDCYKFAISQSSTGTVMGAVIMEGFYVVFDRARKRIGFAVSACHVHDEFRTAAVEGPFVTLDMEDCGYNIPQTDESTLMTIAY

COc1cccc(-c2cccc(C3(c4ccncc4)N=C(N)c4cccnc43)c2)c1F (stereo not shown) [Example 23, 7-(2′-Fluoro-3′-methoxybiphenyl-3-yl)-7-pyridin-4-yl-7H-pyrrolo[3,4-b]pyridin-5-amine]
Ki: 88 nM

— US20100324072A1, “PYRROLOPYRIDINE DERIVATIVES AND THEIR USE AS BACE INHIBITORS” (ASTRAZENECA AB, priority 2007, published 2010)
